The record followed here is patent US8268827B2, “Pyridazinone derivatives as PARP inhibitors” (Istituto di Ricerche di Biologia Molecolare P. Angeletti …, priority 2007, dated 2012).

Structures can show the parent of a compound that is named as a salt.

Experiment [1] has as its target T1, PARP-1 (Homo sapiens, UniProt P09874).
T1 construct: purchased Trevigen 4668-500-01
Kind of experiment: PARP-1 SPA assay. It is filed as biochemical. A digest of the protocol: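 PARP-1 reaction in Tris pH 8 buffer with MgCl2, spermine, KCl, activated calf thymus DNA and a mix of [3H]-NAD, NAD and biotinylated NAD, 2 h at RT. Stopped with EDTA/streptavidin SPA beads and poly(ADP-ribose) incorporation counted by scintillation.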

The subject of experiment [2] is BRCA-1 silenced HeLa cells (HeLa shBRCA1-GFP). In words: Proliferation assay in BRCA-1 silenced HeLa cells. The format is cell-based. Conditions: Homo sapiens; BRCA1 silenced HeLa cells, 168 hours; read-out: CC50 in the BRCA1 silenced HeLa cells. An outline of the steps:
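HeLa cells with lentiviral shRNA BRCA1 knockdown (>80%), compared with control-vector HeLa, seeded at 300 cells/well. Compound exposure lasted 168 h at 37° C. Viability was read as resazurin-to-resorufin fluorescence (ex 550/em 590 nm).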

T1 sequence (P09874 whole entry): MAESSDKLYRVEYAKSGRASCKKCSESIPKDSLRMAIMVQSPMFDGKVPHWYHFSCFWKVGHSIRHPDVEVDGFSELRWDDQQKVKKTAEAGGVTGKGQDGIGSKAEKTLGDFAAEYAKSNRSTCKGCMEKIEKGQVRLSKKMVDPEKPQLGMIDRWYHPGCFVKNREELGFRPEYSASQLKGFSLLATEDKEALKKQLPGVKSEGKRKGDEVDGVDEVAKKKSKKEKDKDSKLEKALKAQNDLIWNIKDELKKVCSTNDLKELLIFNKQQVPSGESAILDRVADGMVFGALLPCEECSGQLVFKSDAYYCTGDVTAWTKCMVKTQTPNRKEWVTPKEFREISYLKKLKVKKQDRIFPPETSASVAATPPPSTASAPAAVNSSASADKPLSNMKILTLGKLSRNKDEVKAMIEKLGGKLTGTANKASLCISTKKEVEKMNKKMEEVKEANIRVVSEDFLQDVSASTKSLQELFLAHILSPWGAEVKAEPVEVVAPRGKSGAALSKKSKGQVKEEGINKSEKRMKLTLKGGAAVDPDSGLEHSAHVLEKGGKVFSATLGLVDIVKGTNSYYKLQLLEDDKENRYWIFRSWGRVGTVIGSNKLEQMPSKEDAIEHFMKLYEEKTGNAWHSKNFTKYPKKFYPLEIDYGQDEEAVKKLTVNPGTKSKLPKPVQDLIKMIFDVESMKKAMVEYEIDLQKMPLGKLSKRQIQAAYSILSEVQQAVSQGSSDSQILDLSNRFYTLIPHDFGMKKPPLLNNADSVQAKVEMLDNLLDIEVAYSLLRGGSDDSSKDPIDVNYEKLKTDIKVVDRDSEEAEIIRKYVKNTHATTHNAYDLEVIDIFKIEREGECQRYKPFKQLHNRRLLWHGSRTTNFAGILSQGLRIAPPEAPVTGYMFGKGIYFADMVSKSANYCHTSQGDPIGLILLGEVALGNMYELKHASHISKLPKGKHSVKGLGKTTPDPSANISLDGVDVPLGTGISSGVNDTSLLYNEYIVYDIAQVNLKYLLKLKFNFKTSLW

The term IC50 denotes the concentration needed to halve the response being measured. A low value points to inhibition by little substance. Usually CC50 stands for the concentration giving 50% cytotoxicity. For the molecule `Cc1c(Cc2ccc(F)c(C(=O)N3CCN(C(c4cccnc4)C(F)F)C(=O)C3)c2)n[nH]c(=O)c1C` (stereo not drawn) [Example 96, 6-(3-{[4-(2,2-difluoro-1-pyridin-3-ylethyl)-3-oxopiperazin-1-yl]carbonyl}-4-fluorobenzyl)-4,5-dimethyl-3-oxo-2,3-dihydropyridazin-1-ium trifluoroacetate], in experiment [1], the IC50 was 5 to 25 nM. The CC50 in experiment [2] was less than 5000 nM.

For `Cc1c(Cc2ccc(F)c(C(=O)N3CCN(CC4(C)CCCO4)C(=O)C3)c2)n[nH]c(=O)c1C` (stereo not drawn) [Example 97, 6-[4-fluoro-3-({4-[(2-methyltetrahydrofuran-2-yl)methyl]-3-oxopiperazin-1-yl}carbonyl)benzyl]-4,5-dimethyl-3-oxo-2,3-dihydropyridazin-1-ium trifluoroacetate], the IC50 in experiment [1] is 5 to 25 nM. Also, in experiment [2], the CC50 is less than 5000 nM.

In experiment [1], `Cc1c(Cc2ccc(F)c(C(=O)N3CCN([C@H]4CCOC4)C(=O)C3)c2)n[nH]c(=O)c1C` [Example 113, 6-[4-Fluoro-3-({3-oxo-4-[(3S)-tetrahydrofuran-3-yl]piperazin-1-yl}carbonyl)benzyl]-4,5-dimethylpyridazin-3(2H)-one] had an IC50 of 5 to 25 nM. Further, in experiment [2], the CC50 was in the range of 50 to 500 nM.

The molecule `Cc1c(Cc2ccc(F)c(C(=O)N3CC(=O)N(C4CCCC4)[C@@H](C)C3)c2)n[nH]c(=O)c1C` [Example 114, 6-(3-{[(3S)-4-cyclopentyl-3-methyl-5-oxopiperazin-1-yl]carbonyl}-4-fluorobenzyl)-4,5-dimethylpyridazin-3(2H)-one] came in with an IC50 in experiment [1] of 5 to 25 nM. For the same molecule, in experiment [2], the CC50 is less than 50 nM.

The molecule `Cc1c(Cc2ccc(F)c(C(=O)N3CC(=O)N(C4CCCC4)[C@H](C)C3)c2)n[nH]c(=O)c1C` [Example 115, 6-(3-{[(3R)-4-cyclopentyl-3-methyl-5-oxopiperazin-1-yl]carbonyl}-4-fluorobenzyl)-4,5-dimethylpyridazin-3(2H)-one] displayed an IC50 in experiment [1] of 5 to 25 nM. Besides, the CC50 in experiment [2] was less than 5000 nM.

As to `Cc1c(Cc2ccc(F)c(C(=O)N3CCN(C4CCOCC4)C(=O)C3)c2)n[nH]c(=O)c1C` [Example 120, 6-(4-fluoro-3-{[3-oxo-4-(tetrahydro-2H-pyran-4-yl)piperazin-1-yl]carbonyl}benzyl)-4,5-dimethyl-3-oxo-2,3-dihydropyridazin-1-ium trifluoroacetate], the IC50 in experiment [1] is 5 to 25 nM. The CC50 in experiment [2] is less than 5000 nM.

Molecule `Cc1c(Cc2ccc(F)c(C(=O)N3CC(=O)N(C4CCCCC4)C(C)C3)c2)n[nH]c(=O)c1C` (stereo not drawn) [Example 125, 3-{3-[(4-Cyclohexyl-3-methyl-5-oxopiperazin-1-yl)carbonyl]-4-fluorobenzyl}-4,5-dimethyl-6-oxo-1,6-dihydropyridazin-1-ium trifluoroacetate] gave an IC50 in experiment [1] of 5 to 25 nM. Further, the CC50 in experiment [2] is less than 50 nM.

In turn, `CCc1cc(Cc2ccc(F)c(C(=O)N3CCN(C4CCCOC4)C(=O)C3)c2)n[nH]c1=O` (stereo not drawn) [Example 133, 4-ethyl-6-(4-fluoro-3-{[3-oxo-4-(tetrahydro-2H-pyran-3-yl)piperazin-1-yl]carbonyl}benzyl)-3-oxo-2,3-dihydropyridazin-1-ium trifluoroacetate] displayed an IC50 in experiment [1] of 5 to 25 nM. Further, the 50% cytotoxic concentration (CC50) in experiment [2] fell in the range of 50 to 500 nM.

For `CCc1cc(Cc2ccc(F)c(C(=O)N3CCN(CC(F)(F)F)C(=O)C3)c2)n[nH]c1=O` [Example 134, 4-ethyl-6-(4-fluoro-3-{[3-oxo-4-(2,2,2-trifluoroethyl)piperazin-1-yl]carbonyl}benzyl)-3-oxo-2,3-dihydropyridazin-1-ium trifluoroacetate], the IC50 in experiment [1] fell in the range of 5 to 25 nM. Further, the CC50 in experiment [2] is less than 5000 nM.

In experiment [1], `Cc1c(Cc2ccc(F)c(C(=O)N3CC(=O)N4CCCC[C@H]4C3)c2)n[nH]c(=O)c1C(F)(F)F` [Example 135, 3-(4-Fluoro-3-{[(9aS)-4-oxooctahydro-2h-pyrido[1,2-a]pyrazin-2-yl]carbonyl}benzyl)-4-methyl-6-oxo-5-(trifluoromethyl)-1,6-dihydropyridazin-1-ium trifluoroacetate] came in with an IC50 of 5 to 25 nM. Also, the CC50 in experiment [2] is less than 50 nM.

`Cc1c(Cc2ccc(F)c(C(=O)N3CC(=O)N4CCOCC4C3)c2)n[nH]c(=O)c1C(F)(F)F` (stereo not drawn) [Example 136, 3-{4-Fluoro-3-[(6-oxohexahydropyrazino[2,1-c][1,4]oxazin-8(1H)-yl)carbonyl]benzyl}-4-methyl-6-oxo-5-(trifluoromethyl)-1,6-dihydropyridazin-1-ium trifluoroacetate]: the IC50 in experiment [1] was less than 5 nM. In experiment [2], the CC50 was 50 to 500 nM.

On to `CCN1C(=O)CN(C(=O)c2cc(Cc3n[nH]c(=O)c(C)c3C)ccc2F)CC1C` (stereo not drawn) [Example 137, 6-{3-[(4-ethyl-3-methyl-5-oxopiperazin-1-yl)carbonyl]-4-fluorobenzyl}-4,5-dimethyl-3-oxo-2,3-dihydropyridazin-1-ium trifluoroacetate], for which, in experiment [1], the IC50 lay within 5 to 25 nM. Also, the CC50 in experiment [2] is 50 to 500 nM.

Regarding `COc1ccc(CN2C(=O)CN(C(=O)c3cc(Cc4n[nH]c(=O)c(C)c4C)ccc3F)CC2C)cc1` (stereo not drawn) [Example 138, 6-(4-fluoro-3-{[4-(4-methoxybenzyl)-3-methyl-5-oxopiperazin-1-yl]carbonyl}benzyl)-4,5-dimethyl-3-oxo-2,3-dihydropyridazin-1-ium trifluoroacetate], the IC50 in experiment [1] lay in the range of 5 to 25 nM. In addition, the cytotoxic concentration (CC50) in experiment [2] is 50 to 500 nM.

For `Cc1c(Cc2ccc(F)c(C(=O)N3CC(=O)N(CC(F)(F)F)C(C)C3)c2)n[nH]c(=O)c1C` (stereo not drawn) [Example 139, 6-(4-fluoro-3-{[3-methyl-5-oxo-4-(2,2,2-trifluoroethyl)piperazin-1-yl]carbonyl}benzyl)-4,5-dimethyl-3-oxo-2,3-dihydropyridazin-1-ium trifluoroacetate], the IC50 in experiment [1] was 5 to 25 nM. For the same molecule, the CC50 in experiment [2] was in the range of 50 to 500 nM.

On to `Cc1c(Cc2ccc(F)c(C(=O)N3CC(=O)N(C4C[C@H]5CC[C@@H]4C5)C(C)C3)c2)n[nH]c(=O)c1C` (stereo partly drawn) [Example 140, 6-[3-({4-[(1R,4S)-bicyclo[2.2.1]hept-2-yl]-3-methyl-5-oxopiperazin-1-yl}carbonyl)-4-fluorobenzyl]-4,5-dimethyl-3-oxo-2,3-dihydropyridazin-1-ium trifluoroacetate], for which the IC50 in experiment [1] was 5 to 25 nM. For the same molecule, the CC50 in experiment [2] is less than 50 nM.

For `Cc1c(Cc2ccc(F)c(C(=O)N3CCN(C4CCCOC4)C(=O)C3)c2)n[nH]c(=O)c1C(F)(F)F` (stereo not drawn) [Example 141, 3-(4-Fluoro-3-{[3-oxo-4-(tetrahydro-2H-pyran-3-yl)piperazin-1-yl]carbonyl}benzyl)-4-methyl-6-oxo-5-(trifluoromethyl)-1,6-dihydropyridazin-1-ium trifluoroacetate], in experiment [1], the IC50 fell in the range of 5 to 25 nM. Moreover, the CC50 in experiment [2] is less than 50 nM.

Molecule `Cc1c(Cc2ccc(F)c(C(=O)N3CCN(C4CCOC4)C(=O)C3)c2)n[nH]c(=O)c1C(F)(F)F` (stereo not drawn) [Example 142, 3-(4-Fluoro-3-{[3-oxo-4-(tetrahydrofuran-3-yl)piperazin-1-yl]carbonyl}benzyl)-4-methyl-6-oxo-5-(trifluoromethyl)-1,6-dihydropyridazin-1-ium trifluoroacetate] came in with an IC50 in experiment [1] of less than 5 nM. In addition, the CC50 in experiment [2] was less than 50 nM.

For the molecule `CCc1cc(Cc2ccc(F)c(C(=O)N3CCN([C@H]4CCCOC4)C(=O)C3)c2)n[nH]c1=O` [Example 144, 4-ethyl-6-[4-fluoro-3-({3-oxo-4-[(3S)-tetrahydro-2H-pyran-3-yl]piperazin-1-yl}carbonyl)benzyl]pyridazin-3(2H)-one], the IC50 in experiment [1] was less than 5 nM. For the same molecule, in experiment [2], the CC50 is less than 5000 nM.

On to `CCc1cc(Cc2ccc(F)c(C(=O)N3CCN([C@@H]4CCCOC4)C(=O)C3)c2)n[nH]c1=O` [Example 145, 4-ethyl-6-[4-fluoro-3-({3-oxo-4-[(3R)-tetrahydro-2H-pyran-3-yl]piperazin-1-yl}carbonyl)benzyl]pyridazin-3(2H)-one], for which the 50% inhibitory concentration (IC50) in experiment [1] lay within 5 to 25 nM. The CC50 in experiment [2] is 50 to 500 nM.

In experiment [1], `Cc1c(Cc2ccc(F)c(C(=O)N3CCN(C4CCOCC4)C(=O)C3)c2)n[nH]c(=O)c1C(F)(F)F` [Example 146, 3-(4-Fluoro-3-{[3-oxo-4-(tetrahydro-2H-pyran-4-yl)piperazin-1-yl]carbonyl}benzyl)-4-methyl-6-oxo-5-(trifluoromethyl)-1,6-dihydropyridazin-1-ium trifluoroacetate] had an IC50 of 5 to 25 nM. In experiment [2], the CC50 was less than 50 nM.

`CCN1C(=O)CN(C(=O)c2cc(Cc3n[nH]c(=O)c(C(F)(F)F)c3C)ccc2F)CC1C` (stereo not drawn) [Example 147, 3-{3-[(4-Ethyl-3-methyl-5-oxopiperazin-1-yl)carbonyl]-4-fluorobenzyl}-4-methyl-6-oxo-5-(trifluoromethyl)-1,6-dihydropyridazin-1-ium trifluoroacetate] had an IC50 in experiment [1] of 5 to 25 nM. Besides, the CC50 in experiment [2] was less than 50 nM.

In experiment [1], `CCc1cc(Cc2ccc(F)c(C(=O)N3CCN(C4CCc5ccccc5C4)C(=O)C3)c2)n[nH]c1=O` (stereo not drawn) [Example 148, 4-Ethyl-6-(4-fluoro-3-{[3-oxo-4-(1,2,3,4-tetrahydronaphthalen-2-yl)piperazin-1-yl]carbonyl}benzyl)pyridazin-3(2H)-one] returned an IC50 of less than 5 nM. In experiment [2], the CC50 was in the range of 50 to 500 nM.

Molecule `Cc1c(Cc2ccc(F)c(C(=O)N3CCN(C4CCC(F)C4)C(=O)C3)c2)n[nH]c(=O)c1C` (stereo not drawn) [Example 150, 6-(4-Fluoro-3-{[4-(3-fluorocyclopentyl)-3-oxopiperazin-1-yl]carbonyl}benzyl)-4,5-dimethylpyridazin-3(2H)-one] showed an IC50 in experiment [1] of less than 5 nM. Besides, the CC50 in experiment [2] was in the range of 50 to 500 nM.

For the molecule `C[C@@H]1CN(C(=O)c2cc(Cc3cc(C(F)(F)F)c(=O)[nH]n3)ccc2F)CC(=O)N1C1CCCC1` [Example 151, 6-(3-{[(3R)-4-cyclopentyl-3-methyl-5-oxopiperazin-1-yl]carbonyl}-4-fluorobenzyl)-4-(trifluoromethyl)pyridazin-3(2H)-one], in experiment [1], the IC50 lay within 5 to 25 nM. Also, the CC50 in experiment [2] is less than 50 nM.
